From US7893266B2, “Detection of cancer cells in vitro using sigma-2 receptor ligands as radiotracers” (Washington University, priority 2003, dated 2011)
Substitutions are numbered along the chain they refer to. Where two headings read alike, the source gives them in different places.

What was measured:
σ2 receptor = target: T1, σ2 receptor (Rattus norvegicus, UniProt Q5U3Y7); experiment: σ2 receptor binding assay, [3H]DTG, rat liver membrane homogenates
T1 construct: rat liver membrane homogenates (35 μg of protein); from tissue; host or cells: rat liver membrane homogenates
T1 sequence (Q5U3Y7 1-176): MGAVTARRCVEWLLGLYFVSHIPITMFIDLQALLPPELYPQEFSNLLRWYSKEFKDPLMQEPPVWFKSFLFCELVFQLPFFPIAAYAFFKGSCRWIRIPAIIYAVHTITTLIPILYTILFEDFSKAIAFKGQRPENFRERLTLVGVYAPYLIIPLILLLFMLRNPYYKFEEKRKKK
Protocol: The σ2 receptor binding assay was conducted using rat liver membrane homogenates (35 μg of protein). […] Incubations were carried out in 50 mM Tris-HCl (pH 8.0) for 120 min at 25° C. in a total incubation volume of 0.5 ml. Test compounds were added in concentrations ranging from 0.005 to 1000 nM. […] Filters were washed twice with 5 ml of ice cold buffer. Nonspecific binding was determined in the presence of 5 μM DTG.

EMT-6 mammary tumors [1] = experiment: Biodistribution in EMT-6 BALB/C mice; assay type: in vivo
Protocol: (§1) As used herein, the term “tumor:background ratio” (i.e., tumor:fat ratio, tumor:muscle ratio, tumor:lung ratio, tumor:blood ratio) refers to the % injected dose/g tissue of the radiotracer in the tumor divided by the % injected dose/g […] in the background tissue (i.e., fat, muscle, lung, blood).
(§2) B. Biodistribution Studies of ^11C analogs in Tumor-Bearing Mice. Biodistribution studies were conducted in mature Balb/c mice that were implanted with EMT-6 mammary tumors identified herein as EMT-6 BALB/C mice to create laboratory tumor-bearing mice. The mice were implanted in the scapular region seven days prior to the study. Animals were injected with 100-150 μCi of the ^11C-labeled radiotracer and the animals were sacrificed at 5, 30, and 60 min post-i.v. injection of the radiotracer.
(§3) A series of biodistribution studies in tumor-bearing mice were also conducted with [^76Br]8, [^76Br]6, [^125I]8i, and [^125I]6i.

[2] = Biodistribution in EMT-6 BALB/C mice; assay type: in vivo; conditions: Balb/c, mouse, intravenous
Protocol: as §1, §2, §3

[3] = target: T2, σ2 receptors in the breast tumors (Mus musculus, UniProt Q8VD00); experiment: In vivo blocking studies with YUN 143 in tumor-bearing mice; conditions: blocking agent YUN 143 (1 mg/kg, i.v.); time point of highest % I.D./gram tumor
T2 construct: mature Balb/c mice that were implanted with EMT-6 mammary tumors; from tissue; host or cells: EMT-6 mammary tumours in Balb/c mice, in vivo
T2 sequence (Q8VD00 1-176): T1 sequence (Q5U3Y7 1-176) with V4L, T5A, M26L, L33V, F71L, V105A, I118L, I127V, N136S, F169Y
Text: The blocking agent was YUN 143, which has a high affinity for σ1 and σ2 receptors. Animals were sacrificed at the time point displaying the highest % I.D./gram tumor.
The inventors then conducted blocking studies in order to confirm that the radiotracer labeled σ2 receptors in the breast tumors. […] We have previously reported that [^18F]YUN 143 labels σ1 and σ2 receptors in breast tumor xenografts (Mach et al., 2001).

EMT-6 mammary tumors [4] = experiment: Comparison with [18F]FLT in tumor-bearing mice; assay type: in vivo; conditions: 1 hr for [11C]10; 2 hr post-i.v. injection for [76Br]6 and [125I]6i
[5] = kidney, read-out: % ID per gram kidney
[6] = liver, read-out: % ID per gram liver

## COc1cc2c(cc1OC)CN(CCNC(=O)c1cc(C)ccc1OC)CC2 [Compound 9]
σ2 receptor; Mean ± SEM, rat liver, [3H]DTG, read-out: Ki σ2
  Ki: 0.0133 ± 0.0001 µM
σ2 receptor; Table I, unit inferred, read-out: σ2
  Ki: 0.0133 µM

## COc1cc2c(cc1OC)CN(CCCCNC(=O)c1cc([125I])cc(OC)c1OC)CC2 [[^125I]6i]
EMT-6 mammary tumors [1]; 5 min
  ratio Tumor:blood: 1.73 ± 0.46
  ratio Tumor:fat: 1.00 ± 0.20
  ratio Tumor:heart: 0.61 ± 0.07
  ratio Tumor:lung: 0.15 ± 0.02
  ratio Tumor:muscle: 0.98 ± 0.13
  % ID per gram blood: 2.37 ± 0.26 % ID per gram
  % ID per gram brain: 1.53 ± 0.14 % ID per gram
  % ID per gram fat: 4.15 ± 0.91 % ID per gram
  % ID per gram heart: 6.55 ± 0.54 % ID per gram
  % ID per gram kidney: 29.51 ± 2.23 % ID per gram
  % ID per gram liver: 13.20 ± 2.04 % ID per gram
  % ID per gram lung: 27.13 ± 1.61 % ID per gram
  % ID per gram muscle: 4.10 ± 0.33 % ID per gram
  % ID per gram tumor: 4.02 ± 0.55 % ID per gram
EMT-6 mammary tumors [1]; 30 min
  ratio Tumor:blood: 2.07 ± 0.32
  ratio Tumor:fat: 2.62 ± 0.27
  ratio Tumor:heart: 2.32 ± 0.18
  ratio Tumor:lung: 0.82 ± 0.09
  ratio Tumor:muscle: 3.94 ± 0.55
  % ID per gram blood: 2.19 ± 0.16 % ID per gram
  % ID per gram brain: 0.39 ± 0.03 % ID per gram
  % ID per gram fat: 1.73 ± 0.20 % ID per gram
  % ID per gram heart: 1.94 ± 0.09 % ID per gram
  % ID per gram kidney: 13.69 ± 0.35 % ID per gram
  % ID per gram liver: 8.77 ± 0.88 % ID per gram
  % ID per gram lung: 5.50 ± 0.62 % ID per gram
  % ID per gram muscle: 1.21 ± 0.17 % ID per gram
  % ID per gram tumor: 4.50 ± 0.43 % ID per gram
EMT-6 mammary tumors [1]; 1 hour
  ratio Tumor:blood: 2.44 ± 0.53
  ratio Tumor:fat: 4.85 ± 0.67
  ratio Tumor:heart: 3.89 ± 0.08
  ratio Tumor:lung: 1.66 ± 0.17
  ratio Tumor:muscle: 4.26 ± 0.74
  % ID per gram blood: 1.52 ± 0.49 % ID per gram
  % ID per gram brain: 0.15 ± 0.03 % ID per gram
  % ID per gram fat: 0.74 ± 0.17 % ID per gram
  % ID per gram heart: 0.91 ± 0.10 % ID per gram
  % ID per gram kidney: 5.94 ± 1.22 % ID per gram
  % ID per gram liver: 4.24 ± 0.60 % ID per gram
  % ID per gram lung: 2.12 ± 0.19 % ID per gram
  % ID per gram muscle: 0.87 ± 0.22 % ID per gram
  % ID per gram tumor: 3.53 ± 0.42 % ID per gram
EMT-6 mammary tumors [1]; 2 hour
  ratio Tumor:blood: 2.83 ± 1.62
  ratio Tumor:fat: 5.86 ± 2.93
  ratio Tumor:heart: 4.85 ± 2.31
  ratio Tumor:lung: 1.99 ± 1.04
  ratio Tumor:muscle: 6.99 ± 4.44
  % ID per gram blood: 0.65 ± 0.07 % ID per gram
  % ID per gram brain: 0.06 ± 0.01 % ID per gram
  % ID per gram fat: 0.33 ± 0.08 % ID per gram
  % ID per gram heart: 0.40 ± 0.05 % ID per gram
  % ID per gram lung: 1.01 ± 0.18 % ID per gram
  % ID per gram muscle: 0.31 ± 0.10 % ID per gram
  % ID per gram tumor: 1.88 ± 0.76 % ID per gram
EMT-6 mammary tumors [1]; 4 hour
  ratio Tumor:blood: 3.11 ± 0.85
  ratio Tumor:fat: 9.59 ± 4.55
  ratio Tumor:heart: 5.91 ± 1.65
  ratio Tumor:lung: 2.83 ± 0.19
  ratio Tumor:muscle: 8.98 ± 3.01
  % ID per gram blood: 0.29 ± 0.11 % ID per gram
  % ID per gram brain: 0.02 ± 0.01 % ID per gram
  % ID per gram fat: 0.10 ± 0.05 % ID per gram
  % ID per gram heart: 0.15 ± 0.04 % ID per gram
  % ID per gram muscle: 0.10 ± 0.04 % ID per gram
  % ID per gram tumor: 0.82 ± 0.09 % ID per gram
[2]; [5]
  tissue uptake at 2 h: 2.45 ± 0.25 %ID/g
  tissue uptake at 4 h: 0.63 ± 0.11 %ID/g
[2]; [6]
  tissue uptake at 2 h: 1.91 ± 0.2 %ID/g
  tissue uptake at 4 h: 0.9 ± 0.21 %ID/g
[2]; lung, read-out: % ID per gram lung
  tissue uptake at 4 h: 0.29 ± 0.05 %ID/g
[3]
  in vivo blocking study result: consistent with the labeling of σ2 receptors in vivo

## COc1cc2c(cc1OC)CN(CCCCNC(=O)c1cc(C)cc(OC)c1O[11CH3])CC2 [[^11C]10]
EMT-6 mammary tumors [4]
  tumor:background ratios compared with [18F]FLT: tumor:lung and tumor:fat ratios equal to [^18F]FLT and tumor:blood, tumor:muscle and tumor:heart ratios that are greater than that of [18F]FLT
EMT-6 mammary tumors [1]; 5 min
  ratio Tumor:blood: 1.37 ± 0.33
  ratio Tumor:fat: 2.28 ± 0.32
  ratio Tumor:heart: 0.71 ± 0.12
  ratio Tumor:lung: 0.31 ± 0.11
  ratio Tumor:muscle: 0.93 ± 0.13
  % ID per gram blood: 3.09 ± 0.33 % ID per gram
  % ID per gram brain: 2.29 ± 0.28 % ID per gram
  % ID per gram fat: 1.88 ± 0.50 % ID per gram
  % ID per gram heart: 5.86 ± 0.47 % ID per gram
  % ID per gram kidney: 20.50 ± 1.86 % ID per gram
  % ID per gram liver: 12.32 ± 1.73 % ID per gram
  % ID per gram lung: 14.02 ± 1.40 % ID per gram
  % ID per gram muscle: 4.49 ± 0.45 % ID per gram
  % ID per gram tumor: 4.22 ± 1.01 % ID per gram
EMT-6 mammary tumors [1]; 30 min
  ratio Tumor:blood: 1.80 ± 0.26
  ratio Tumor:fat: 3.68 ± 1.14
  ratio Tumor:heart: 2.53 ± 0.55
  ratio Tumor:lung: 1.06 ± 0.24
  ratio Tumor:muscle: 3.18 ± 0.51
  % ID per gram blood: 1.31 ± 0.11 % ID per gram
  % ID per gram brain: 0.28 ± 0.03 % ID per gram
  % ID per gram fat: 0.68 ± 0.19 % ID per gram
  % ID per gram heart: 0.95 ± 0.17 % ID per gram
  % ID per gram kidney: 4.12 ± 0.51 % ID per gram
  % ID per gram liver: 9.65 ± 2.00 % ID per gram
  % ID per gram lung: 2.27 ± 0.42 % ID per gram
  % ID per gram muscle: 0.75 ± 0.13 % ID per gram
  % ID per gram tumor: 2.35 ± 0.27 % ID per gram
EMT-6 mammary tumors [1]; 1 hour
  ratio Tumor:blood: 1.81 ± 0.11
  ratio Tumor:fat: 5.36 ± 2.38
  ratio Tumor:heart: 2.78 ± 0.79
  ratio Tumor:lung: 1.28 ± 0.41
  ratio Tumor:muscle: 2.78 ± 0.62
  % ID per gram blood: 0.73 ± 0.05 % ID per gram
  % ID per gram brain: 0.15 ± 0.01 % ID per gram
  % ID per gram fat: 0.33 ± 0.24 % ID per gram
  % ID per gram heart: 0.50 ± 0.11 % ID per gram
  % ID per gram kidney: 2.26 ± 0.36 % ID per gram
  % ID per gram liver: 3.00 ± 0.21 % ID per gram
  % ID per gram lung: 1.09 ± 0.26 % ID per gram
  % ID per gram muscle: 0.49 ± 0.11 % ID per gram
  % ID per gram tumor: 1.32 ± 0.17 % ID per gram
[3]
  in vivo blocking study result: consistent with the labeling of σ2 receptors in vivo
